The record followed here is ChEMBL document CHEMBL3232889, “Identification of novel SIRT2-selective inhibitors using a click chemistry approach” (Bioorg Med Chem Lett, 2014).

The term IC50 denotes the concentration needed to halve the response being measured.

Activity calls are given as the source filed them.

The first assay concerns the target T1, NAD-dependent protein deacetylase sirtuin-1 (Homo sapiens, UniProt Q96EB6).
T1 sequence (Q96EB6 whole entry): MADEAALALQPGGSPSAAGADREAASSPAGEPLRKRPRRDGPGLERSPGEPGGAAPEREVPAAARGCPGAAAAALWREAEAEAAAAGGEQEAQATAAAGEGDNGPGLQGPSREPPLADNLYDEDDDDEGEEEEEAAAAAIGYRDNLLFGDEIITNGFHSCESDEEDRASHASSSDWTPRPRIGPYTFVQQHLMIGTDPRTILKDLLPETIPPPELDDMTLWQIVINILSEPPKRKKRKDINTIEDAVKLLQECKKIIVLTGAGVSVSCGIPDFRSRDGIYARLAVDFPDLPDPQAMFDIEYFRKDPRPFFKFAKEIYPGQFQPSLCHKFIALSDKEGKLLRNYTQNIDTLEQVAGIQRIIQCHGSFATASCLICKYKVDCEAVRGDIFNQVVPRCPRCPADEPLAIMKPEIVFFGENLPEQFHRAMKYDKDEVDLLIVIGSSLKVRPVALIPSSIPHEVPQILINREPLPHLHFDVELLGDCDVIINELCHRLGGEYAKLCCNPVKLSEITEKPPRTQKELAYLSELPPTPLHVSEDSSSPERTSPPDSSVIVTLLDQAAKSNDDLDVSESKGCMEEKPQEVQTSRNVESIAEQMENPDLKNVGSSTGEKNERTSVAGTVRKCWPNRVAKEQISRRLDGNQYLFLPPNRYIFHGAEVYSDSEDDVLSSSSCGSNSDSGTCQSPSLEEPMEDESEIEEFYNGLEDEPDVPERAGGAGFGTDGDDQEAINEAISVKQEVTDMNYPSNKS
The experiment in a line: Inhibition of human recombinant SIRT1 using Fluor-de-Lys as substrate incubated for 60 mins prior to substrate addition measured after 60 mins by fluorometric analysis.
Conditions: not given
As to `NC(=O)c1ccccc1Nc1ccc(-c2cn(Cc3ccccc3)nn2)cc1`, the IC50 was above 100 µM. As to `NC(=O)c1ccccc1Nc1cccc(-c2cn(CCC3CCCC3)nn2)c1`, the IC50 is above 100 µM.

A further assay concerns the target T2, NAD-dependent protein deacetylase sirtuin-2 (Homo sapiens, UniProt Q8IXJ6).
T2 sequence (Q8IXJ6 whole entry): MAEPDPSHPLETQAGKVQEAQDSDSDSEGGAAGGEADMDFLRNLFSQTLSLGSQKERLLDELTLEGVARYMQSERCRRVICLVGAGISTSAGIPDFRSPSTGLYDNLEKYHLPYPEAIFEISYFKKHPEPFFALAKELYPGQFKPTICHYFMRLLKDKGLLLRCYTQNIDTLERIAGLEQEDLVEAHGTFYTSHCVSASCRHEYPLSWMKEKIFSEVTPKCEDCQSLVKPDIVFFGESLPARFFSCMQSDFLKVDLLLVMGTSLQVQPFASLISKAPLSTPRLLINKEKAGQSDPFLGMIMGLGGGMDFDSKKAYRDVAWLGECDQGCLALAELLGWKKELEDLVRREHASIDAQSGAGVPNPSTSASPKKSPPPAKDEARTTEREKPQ
The experiment in a line: Inhibition of human recombinant SIRT2 using Fluor-de-Lys as substrate incubated for 60 mins prior to substrate addition measured after 60 mins by fluorometric analysis.
Conditions: not given
Consider `NC(=O)c1ccccc1Nc1ccc(-c2cn(Cc3ccccc3)nn2)cc1`, for which the IC50 worked out at 6.3 µM. As to `NC(=O)c1ccccc1Nc1cccc(-c2cn(CCC3CCCC3)nn2)c1`, the half-inhibitory concentration (IC50) is 5.3 µM.

In another assay the target is T3, NAD-dependent protein deacetylase sirtuin-2 (Homo sapiens) (UniProt Q8IXJ6).
T3 sequence (whole entry): T2 sequence (Q8IXJ6 whole entry)
The following applies: at 10 µM.
Description: Inhibition of human recombinant SIRT2 using Fluor-de-Lys as substrate at 10 uM incubated for 60 mins prior to substrate addition measured after 60 mins by fluorometric analysis
In the case of `COc1ccc(CCN=[N+]=[N-])cc1`, the inhibition result was “Active”. As to `[N-]=[N+]=NCCC1CCCCC1`, the inhibition entry is “Active”. `N#C/C(=C\c1ccc(-c2cc(Cl)ccc2Cl)o1)C(=O)Nc1cccc2ncccc12`: the inhibition entry was “Active”. Turning to `[N-]=[N+]=N/C=C/c1ccccc1`, the inhibition entry is “Active”. As for `[N-]=[N+]=NCCc1ccccc1C(F)(F)F`, the inhibition entry is “Active”.

With `[N-]=[N+]=NCCc1ccccc1[N+](=O)[O-]`, the inhibition result was “Active”.

For the compound `NC(=O)c1ccccc1Nc1ccc(-c2cn(Cc3ccccc3)nn2)cc1`, the inhibition entry is “Active”.

Consider `[N-]=[N+]=NCSc1ccccc1`, for which the inhibition result is “Active”. Still for that read-out and setting: the result for `[N-]=[N+]=NCC12CC3CC(CC(C3)C1)C2` reads “Active”; that for `[N-]=[N+]=NCCN1CCOCC1`, “Active”; that for `[N-]=[N+]=Nc1ccccc1`, “Active”. Same read-out and setting: in the case of `[N-]=[N+]=NCc1ccc(-c2ccccc2)cc1` it was “Active”; in that of `[N-]=[N+]=NCc1ccc2ccccc2c1`, “Active”.

On to `[N-]=[N+]=NCc1ccccc1`, for which the inhibition result was “Active”. Still for that read-out and setting: in the case of `[N-]=[N+]=NCCc1ccccc1` it was “Active”. On the same count and under the same terms, the result for `COc1ccc(CN=[N+]=[N-])cc1` reads “Active”; that for `[N-]=[N+]=NCCc1cccc(Cl)c1`, “Active”; that for `[N-]=[N+]=Nc1ccc(Br)cc1`, “Active”. Turning to `[N-]=[N+]=NCCc1ccc(C(F)(F)F)cc1`, the inhibition entry is “Active”. On the same count and under the same terms, in the case of `[N-]=[N+]=NCCc1cccc(C(F)(F)F)c1` it was “Active”; in that of `Cc1ccc(CCN=[N+]=[N-])cc1`, “Active”. `[N-]=[N+]=Nc1ccccc1-c1ccccc1`: the inhibition entry is “Active”. On the same count and under the same terms, the result for `[N-]=[N+]=NCCc1ccccc1Cl` reads “Active”; that for `[N-]=[N+]=NCCC12CC3CC(CC(C3)C1)C2`, “Active”. On the same count and under the same terms, in the case of `NC(=O)c1ccccc1Nc1cccc(-c2cn(CCC3CCCC3)nn2)c1` it was “Active”; in that of `COc1cccc(CCN=[N+]=[N-])c1`, “Active”. The same measure, in the same setting: in the case of `[N-]=[N+]=NCCCCCc1ccccc1` it was “Active”; in that of `[N-]=[N+]=NCCc1c[nH]c2ccccc12`, “Active”; in that of `[N-]=[N+]=NCc1cccc(-c2ccccc2)c1`, “Active”. Take `[N-]=[N+]=NCCC1CCCC1`: the inhibition result was “Active”. The same measure, in the same setting: in the case of `Cc1cccc(C)c1NC(=O)CN=[N+]=[N-]` it was “Active”. Same read-out and setting: in the case of `[N-]=[N+]=NCCc1ccc2ccccc2c1` it was “Active”; in that of `[N-]=[N+]=NCCc1ccsc1`, “Active”. Same read-out and setting: the result for `[N-]=[N+]=NCCCc1ccccc1` reads “Active”; that for `C#Cc1ccc(Nc2ccccc2C(N)=O)cc1`, “Active”.

Turning to `[N-]=[N+]=NCCc1ccc(Cl)cc1`, the inhibition result is “Active”. The same measure, in the same setting: the result for `[N-]=[N+]=Nc1ccc(N)cc1` reads “Active”; that for `[N-]=[N+]=Nc1ccc(I)cc1`, “Active”. Still for that read-out and setting: in the case of `[N-]=[N+]=NCC1CCCCC1` it was “Active”; in that of `Cc1ccccc1CCN=[N+]=[N-]`, “Active”. Consider `[N-]=[N+]=Nc1cccc2ccccc12`, for which the inhibition result is “Active”. With `COc1ccc(N=[N+]=[N-])cc1`, the inhibition result is “Active”. As to `[N-]=[N+]=NC[S+]([O-])c1ccccc1` (stereo unspecified), the inhibition entry is “Active”. The same measure, in the same setting: in the case of `[N-]=[N+]=NCC(=O)c1ccccc1` it was “Active”. On the same count and under the same terms, the result for `[N-]=[N+]=NCS(=O)(=O)c1ccccc1` reads “Active”; that for `C#Cc1cccc(Nc2ccccc2C(N)=O)c1`, “Active”. The same measure, in the same setting: the result for `[N-]=[N+]=NCc1cccc2ccccc12` reads “Active”; that for `[N-]=[N+]=Nc1ccc(F)cc1`, “Active”; that for `Cc1ccc(N=[N+]=[N-])cc1C`, “Active”. In the case of `[N-]=[N+]=NCCc1ccc(F)cc1`, the inhibition entry is “Active”.

As to `[N-]=[N+]=NCCc1ccc([N+](=O)[O-])cc1`, the inhibition entry was “Active”. Take `Cc1ccc(N=[N+]=[N-])cc1`: the inhibition result was “Active”.

As for `[N-]=[N+]=NCC(=O)Nc1ccc(F)cc1`, the inhibition result is “Active”. On the same count and under the same terms, the result for `[N-]=[N+]=NCCc1ccccc1F` reads “Active”; that for `Cc1ncsc1CCN=[N+]=[N-]`, “Active”; that for `[N-]=[N+]=NCCc1cccc2ccccc12`, “Active”. As for `[N-]=[N+]=NCCc1cccc(F)c1`, the inhibition entry is “Active”. Regarding `[N-]=[N+]=Nc1ccc(O)cc1`, the inhibition entry was “Active”. The same measure, in the same setting: in the case of `COc1ccccc1CCN=[N+]=[N-]` it was “Active”; in that of `[N-]=[N+]=NCCc1ccccn1`, “Active”; in that of `Cc1cccc(CCN=[N+]=[N-])c1`, “Active”.

The next assay concerns the target T4, NAD-dependent protein deacetylase sirtuin-3, mitochondrial (Homo sapiens) (UniProt Q9NTG7).
T4 sequence (whole entry): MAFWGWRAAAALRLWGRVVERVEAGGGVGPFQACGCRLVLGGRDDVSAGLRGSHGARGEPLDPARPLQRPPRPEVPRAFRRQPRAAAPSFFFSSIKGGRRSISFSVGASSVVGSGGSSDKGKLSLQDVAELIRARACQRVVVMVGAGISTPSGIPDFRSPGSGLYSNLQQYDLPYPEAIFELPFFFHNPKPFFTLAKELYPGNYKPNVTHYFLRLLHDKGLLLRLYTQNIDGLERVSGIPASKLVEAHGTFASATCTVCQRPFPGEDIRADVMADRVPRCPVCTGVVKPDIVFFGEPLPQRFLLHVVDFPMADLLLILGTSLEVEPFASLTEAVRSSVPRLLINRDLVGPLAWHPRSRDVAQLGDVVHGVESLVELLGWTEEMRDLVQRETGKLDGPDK
As to the kind of experiment: Inhibition of human recombinant SIRT3 using Fluor-de-Lys as substrate at 10 uM incubated for 60 mins prior to substrate addition measured after 60 mins by fluorometric analysis.
Conditions: not given
For `NC(=O)c1ccccc1Nc1ccc(-c2cn(Cc3ccccc3)nn2)cc1`, the inhibition result was “inactive”.

For `NC(=O)c1ccccc1Nc1cccc(-c2cn(CCC3CCCC3)nn2)c1`, the inhibition result was “inactive”.

Another assay has as its target T5, NAD-dependent protein deacetylase sirtuin-3, mitochondrial (Homo sapiens, UniProt Q9NTG7).
T5 sequence (Q9NTG7 whole entry): T4 sequence (whole entry)
As to the kind of experiment: Inhibition of human recombinant SIRT3 using Fluor-de-Lys as substrate incubated for 60 mins prior to substrate addition measured after 60 mins by fluorometric analysis.
Conditions: not given
Regarding `NC(=O)c1ccccc1Nc1ccc(-c2cn(Cc3ccccc3)nn2)cc1`, the IC50 is above 100 µM. Take `NC(=O)c1ccccc1Nc1cccc(-c2cn(CCC3CCCC3)nn2)c1`: the IC50 was above 100 µM.

The target of a further assay is T6, NAD-dependent protein deacetylase sirtuin-1 (Homo sapiens) (UniProt Q96EB6).
T6 sequence (whole entry): T1 sequence (Q96EB6 whole entry)
The experiment in a line: Inhibition of human recombinant SIRT1 using Fluor-de-Lys as substrate at 10 uM incubated for 60 mins prior to substrate addition measured after 60 mins by fluorometric analysis.
Conditions: not given
As for `NC(=O)c1ccccc1Nc1ccc(-c2cn(Cc3ccccc3)nn2)cc1`, the inhibition entry is “inactive”. Still for that read-out and setting: in the case of `NC(=O)c1ccccc1Nc1cccc(-c2cn(CCC3CCCC3)nn2)c1` it was “inactive”.
